Measured values reported in ChEMBL document CHEMBL6078714, “Discovery of N-Trifluoromethylated Noscapines as Novel and Potent Agents for the Treatment of Glioblastoma” (J Med Chem, 2025).
pIC50: −log10 of the molar value. Values belong to the compound of their own block, whether it stands above or below them. The source made the active and inactive calls. No cut-off for these calls is given here.

Columns and labels:
[1] = test system: U-87 MG; test: Antiproliferative activity against human U87 cells; type: functional, cell-based, U-87MG ATCC
[2] = Stability of compound in 0.1M HCl solution at pH 1.0 measured after 48 hrs by 1H NMR analysis; type: physicochemical; conditions: buffer, pH 1, 48 h
[3] = Stability of compound in sodium phosphate buffer at pH 7.4 measured after 48 hrs by 1H NMR analysis; type: physicochemical; conditions: pH 7.4, 48 h
[4] = test system: U-87 MG; test: Antiproliferative activity against human U-87 MG cells assessed as inhibition of cell proliferation incubated for 72 hrs by CCK8 assay; type: functional, cell-based, U-87MG ATCC
[5] = Nephrotoxicity in male BALB/c nude mouse xenografted with human U-118-MG cells assessed as intravascular necrosis of renal tubules at 0.5 mg/kg, ip administered daily for 4 weeks by H and E staining based analysis; type: toxicity, organism-based; conditions: in vivo, 672 h
[6] = Toxicity in male BALB/c nude mouse xenografted with human U-118-MG cells assessed as body weight loss at 2.5 mg/kg, ip administered daily for 4 weeks; type: organism-based; conditions: in vivo, 672 h
[7] = Nephrotoxicity in male BALB/c nude mouse xenografted with human U-118-MG cells assessed as shedding of renal tubular epithelial cells at 0.5 mg/kg, ip administered daily for 4 weeks by H and E staining based analysis; type: toxicity, organism-based; conditions: in vivo, 672 h
[8] = test system: U-118-MG; test: Cell cycle arrest in human U-118-MG cells assessed as accumulation of cells at G2 phase at 100 uM incubated for 24 hrs by flow cytometric analysis (reference value: 30.6 %); type: functional
[9] = test system: U-118-MG; test: Cell cycle arrest in human U-118-MG cells assessed as accumulation of cells at G1 phase at 100 uM incubated for 24 hrs by flow cytometric analysis (reference value: 56.2 %); type: functional
[10] = test system: U-118-MG; test: Antitumor activity against human U-118-MG cells xenografted in male BALB/c nude mouse assessed as tumor growth inhibition at 2.5 mg/kg, ip administered daily for 4 weeks relative to control; type: functional; conditions: 672 h, read-out: TGI
[11] = Permeability of compound incubated for 12 hrs by PAMPA; type: ADME; conditions: read-out: permeability
[12] = test system: U-118-MG; test: Antiproliferative activity against human U-118-MG cells assessed as inhibition of cell proliferation incubated for 72 hrs by CCK8 assay; type: functional, cell-based
[13] = test system: U-118-MG; test: Cell cycle arrest in human U-118-MG cells assessed as accumulation of cells at S phase at 100 uM incubated for 24 hrs by flow cytometric analysis (reference value: 10.7 %); type: functional
[14] = test system: U-118-MG; test: Induction of apoptosis in human U-118-MG cells assessed as apoptotic rate at 20 uM incubated for 24 hrs by Annexin V-FITC/PI staining based flow cytometric analysis relative to control; type: functional
[15] = Drug distribution in male Swiss albino mouse brain at 5 mg/kg, iv measured after 0.5 hrs; type: ADME, organism-based; conditions: read-out: Ct
[16] = Drug distribution in male Swiss albino mouse plasma at 5 mg/kg, iv measured after 0.5 hrs; type: ADME, organism-based
[17] = Ratio of drug concentration in male Swiss albino mouse brain to plasma at 5 mg/kg, iv measured after 0.5 hrs; type: ADME, organism-based; conditions: read-out: BPR
[18] = test system: U-118-MG; test: Cell cycle arrest in human U-118-MG cells assessed as accumulation of cells at G1 phase at 20 uM incubated for 24 hrs by flow cytometric analysis (reference value: 56.2 %); type: functional
[19] = test system: U-118-MG; test: Cell cycle arrest in human U-118-MG cells assessed as accumulation of cells at G2 phase at 20 uM incubated for 24 hrs by flow cytometric analysis (reference value: 30.6 %); type: functional
[20] = test system: U-118-MG; test: Cell cycle arrest in human U-118-MG cells assessed as accumulation of cells at S phase at 20 uM incubated for 24 hrs by flow cytometric analysis (reference value: 10.7 %); type: functional
[21] = test system: U-118-MG; test: Antitumor activity against human U-118-MG cells xenografted in male BALB/c nude mouse assessed as tumor growth inhibition at 10 mg/kg, ip administered daily for 4 weeks relative to control; type: functional; conditions: 672 h, read-out: TGI
[22] = Stability of compound in sodium carbonate buffer at pH 10 measured after 48 hrs by 1H NMR analysis; type: physicochemical; conditions: pH 10, 48 h
[23] = Stability of compound in 0.1M HCl solution at pH 1.0 assessed as parent compound remaining measured after 6 hrs by 1H NMR analysis; type: physicochemical; conditions: read-out: Stability
[24] = test system: U-118-MG; test: Antiproliferative activity against human U-118- MG cells assessed as inhibition of cell proliferation by crystal violet staining based analysis; type: functional; conditions: dose 10-40 µM
[25] = test system: U-118-MG; test: Antiproliferative activity against human U-118- MG cells assessed as inhibition of cell proliferation at 10 uM by crystal violet staining based analysis; type: functional
[26] = Stability of compound in 0.1M HCl solution at pH 1.0 assessed as parent compound remaining measured after 48 hrs by 1H NMR analysis; type: physicochemical; conditions: read-out: Stability

Structure (SMILES): CC1=C2CC[C@@](C)(O)[C@@H]2[C@H]2OC(=O)[C@@H](CN(C)C)[C@@H]2CC1
pIC50 [1]: 4.68

Structure (SMILES): FC(F)(F)N1CCc2ccccc2C1
Stability [2]: Stable | Stability [3]: Stable

Structure (SMILES): Cn1nnc2c(C(N)=O)ncn2c1=O [TEMOZOLOMIDE]
pIC50 [4]: < 4.00 | Activity [5]: Toxic | Activity [6]: Toxic | Activity [7]: Toxic | Activity [8]: 36.8% | Activity [9]: 41.3% | inhibition in vivo at 2.5 mg/kg [10]: 80.4% | Papp at 12 h [11]: 14.7 nm/s | pIC50 [12]: < 4.00 | Activity [13]: 18.9%

Structure (SMILES): FC(F)(F)N1CCc2ccccc2C1Cc1ccccc1 (configuration not stated)
Stability [2]: Stable | Stability [3]: Stable

Structure (SMILES): COc1ccc2c(c1OC)C(=O)O[C@@H]2[C@H]1c2c(cc3c(c2OC)OCO3)CCN1C [NOSCAPINE]
pIC50 [4]: < 4.00 | Activity [14]: 16.3% | concentration at 0.5 h [15]: 19.6 ng/g | concentration at 0.5 h [16]: 0.0453 µg/mL | Kp at 0.5 h [17]: 0.43 | Activity [18]: 52.9% | Activity [19]: 34.1% | Activity [20]: 10.7% | inhibition in vivo at 10 mg/kg [21]: 31% | Papp at 12 h [11]: 110 nm/s | pIC50 [12]: < 4.00

Structure (SMILES): FC(F)(F)N1CCc2ccccc2[C@@H]1c1ccccc1
Stability [2]: Stable | Stability [3]: Stable

Structure (SMILES): FC(F)(F)N1CCCc2ccccc21
Stability [22]: Unstable | Stability [2]: Unstable | Stability [3]: Unstable | remaining at 6 h [23]: 7%

Structure (SMILES): CC1c2ccccc2CCN1C(F)(F)F (configuration not stated)
Stability [2]: Stable | Stability [3]: Stable

Now from value to compound, other results behind:

pIC50 [4]: 4.41 | Papp at 12 h [11]: 128 nm/s
Structure (SMILES): COc1ccc2c(c1OC)C(=O)O[C@@H]2[C@H]1c2c(c(C#N)c3c(c2OC)OCO3)CCN1C(F)(F)F
Activity [24]: Dose-dependent-effect | Activity [25]: Active | pIC50 [12]: 4.71

pIC50 [4]: 4.48 | Papp at 12 h [11]: 158 nm/s
Structure (SMILES): COc1ccc2c(c1OC)C(=O)O[C@@H]2[C@H]1c2c(c(I)c3c(c2OC)OCO3)CCN1C(F)(F)F
Activity [24]: Dose-dependent-effect | Activity [25]: Active | pIC50 [12]: 4.76

pIC50 [4]: 4.59 | Papp at 12 h [11]: 168 nm/s
Structure (SMILES): COc1ccc2c(c1OC)C(=O)O[C@@H]2[C@H]1c2c(c(Cl)c3c(c2OC)OCO3)CCN1C(F)(F)F
Activity [24]: Dose-dependent-effect | Activity [25]: Active | pIC50 [12]: 5.01

Stability [22]: Stable | pIC50 [4]: 4.17 | Stability [3]: Stable | remaining at 48 h [26]: 73% | Papp at 12 h [11]: 180 nm/s
Structure (SMILES): COc1ccc2c(c1OC)C(=O)O[C@@H]2[C@H]1c2c(cc3c(c2OC)OCO3)CCN1C(F)(F)F
Activity [24]: Dose-dependent-effect | Activity [25]: Active | pIC50 [12]: 4.50
